Reference: patent US20170172955A1, “Treatment of Mixed Dyslipidemia” (priority 2015, published 2017)
pIC50: −log10 of the molar value. Where two headings read alike, the source gives them in different places.

Assays:
[1] = Musculoskeletal adverse events, study A4141001
CYP2C9 = CYP2C9 (Homo sapiens, UniProt P11712); experiment: biochemical
Experimental: (§1) Human livers, HLM141, HLM143, and HLM144 were selected from the University of Washington Human Liver Bank for this study. […] The actual concentrations used for each of the other probes are specified below. […] The seven isoforms and the metabolic pathway of each of the probes used to monitor specific isoform activity are listed below.
CYP2C9: The 7-hydroxylation of (S)-warfarin (4 μM). The reaction is monitored by quantitative GC/MS using 7-hydroxywarfarin-(d5-phenyl) as the internal standard.

[2] = test system: STAM model of non-alcoholic steatohepatitis (NASH); conditions: for Sirius Red positive area (mean ± SD) / NAFLD Activity score, NAS (mean ± SD) / Fasting blood glucose (mean ± SD) / Plasma insulin (mean ± SD) / Liver hydroxyl-proline (mean ± SD) / Liver triglyceride (mean ± SD) / Non-fasting blood glucose (mean ± SD) / Plasma ALT (mean ± SD) / Plasma AST (mean ± SD) / Plasma ketone body (mean ± SD): STAM mice; for Fasting blood glucose (mean ± SD) / Plasma insulin (mean ± SD): Day 18, 8 hours of fasting; for Liver hydroxyl-proline (mean ± SD) / Liver triglyceride (mean ± SD) / Non-fasting blood glucose (mean ± SD) / Plasma ALT (mean ± SD) / Plasma AST (mean ± SD) / Plasma ketone body (mean ± SD): termination (Day 21)
Experimental: Telmisartan (Micardis®) was purchased from Boehringer Ingelheim GmbH (Germany) and dissolved in pure water.
Telmisartan was administered at a dose of 10 mg/kg once daily.
Measurement of whole blood and plasma biochemistry: Eight-hour fasting blood samples were collected from facial vein at 3 days prior to termination.
Eight-hour fasting blood glucose was measured in whole blood using Life Check (EIDIA Co. Ltd., Japan). For plasma biochemistry, eight-hour fasting blood was collected in polypropylene tubes with anticoagulant (Novo-Heparin, Mochida Pharmaceutical, Japan) and centrifuged at 1,000×g for 15 minutes at 4° C. The supernatant was collected and stored at −80° C. until use. Plasma insulin levels were quantified by Ultra Sensitive Mouse Insulin ELISA kit (Morinaga Institute of Biological Science, Inc., Japan).
On the day of termination, non-fasting blood glucose was measured in whole blood using Life Check. For plasma biochemistry, non-fasting blood was collected in polypropylene tubes with anticoagulant (Novo-Heparin) and centrifuged at 1,000×g for 15 minutes at 4° C. The supernatant was collected and stored at −80° C. until use. Plasma ALT, AST, ALP, GGT, BUN, creatinine and total bilirubin levels were measured by FUJI DRI-CHEM 7000 (Fujifilm Corporation, Japan). Plasma ketone body levels were quantified by EnzyChrom™ Ketone Body Assay Kit (BioAssay Systems, USA). […]
Histological analyses: For HE staining, sections were cut from paraffin blocks of liver tissue prefixed in Bouin's solution and stained with Lillie-Mayer's Hematoxylin (Muto Pure Chemicals Co., Ltd., Japan) and eosin solution (Wako Pure Chemical Industries). […] To visualize collagen deposition, Bouin's fixed liver sections were stained using picro-Sirius red solution (Waldeck, Germany). […]
Statistical analyses were performed using Bonferroni Multiple Comparison Test on GraphPad Prism 6 (GraphPad Software Inc., USA). […] Results were expressed as mean±SD.
The viability, clinical signs and behavior were monitored daily. Body weight was recorded before the treatment. […] The animals were sacrificed by exsanguination through direct cardiac puncture under isoflurane anesthesia (Pfizer Inc.) at 9 weeks of age.

CYP1A2 = CYP1A2 (Homo sapiens, UniProt P05177); experiment: biochemical
Sequence of CYP1A2 (P05177 whole entry): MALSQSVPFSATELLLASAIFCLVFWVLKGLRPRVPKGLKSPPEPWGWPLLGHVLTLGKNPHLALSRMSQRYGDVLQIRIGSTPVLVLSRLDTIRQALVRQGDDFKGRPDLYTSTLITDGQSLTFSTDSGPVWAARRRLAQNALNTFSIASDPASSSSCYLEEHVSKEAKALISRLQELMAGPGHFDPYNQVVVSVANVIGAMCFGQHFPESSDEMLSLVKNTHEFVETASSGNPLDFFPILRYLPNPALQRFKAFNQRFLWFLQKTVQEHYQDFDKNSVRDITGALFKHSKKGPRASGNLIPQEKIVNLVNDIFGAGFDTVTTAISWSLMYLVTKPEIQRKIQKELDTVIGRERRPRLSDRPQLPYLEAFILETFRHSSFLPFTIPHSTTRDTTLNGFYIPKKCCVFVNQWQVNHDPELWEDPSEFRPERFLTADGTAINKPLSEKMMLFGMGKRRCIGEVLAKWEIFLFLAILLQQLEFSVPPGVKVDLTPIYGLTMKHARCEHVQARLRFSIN
Experimental: as §1
CYP1A2: The 6-hydroxylation of high concentrations (0.5 mM) of (R)-warfarin. The reaction is monitored by quantitative gas chromatographic/mass spectrometric (GC/MS) using 6-hydroxywarfarin-(d5-phenyl) as the internal standard.

[3] = study A4141001, patient type IIa
[4] = study A4141001, patient type IIa + IIb
[5] = study A4141001, patient type IIb
[6] = gemcabene 30 mg/kg PO QD, n = 8
[7] = gemcabene 100 mg/kg PO QD, n = 8
[8] = gemcabene 300 mg/kg PO QD, n = 8

Sequence of CYP2C9 (P11712 whole entry, canonical isoform): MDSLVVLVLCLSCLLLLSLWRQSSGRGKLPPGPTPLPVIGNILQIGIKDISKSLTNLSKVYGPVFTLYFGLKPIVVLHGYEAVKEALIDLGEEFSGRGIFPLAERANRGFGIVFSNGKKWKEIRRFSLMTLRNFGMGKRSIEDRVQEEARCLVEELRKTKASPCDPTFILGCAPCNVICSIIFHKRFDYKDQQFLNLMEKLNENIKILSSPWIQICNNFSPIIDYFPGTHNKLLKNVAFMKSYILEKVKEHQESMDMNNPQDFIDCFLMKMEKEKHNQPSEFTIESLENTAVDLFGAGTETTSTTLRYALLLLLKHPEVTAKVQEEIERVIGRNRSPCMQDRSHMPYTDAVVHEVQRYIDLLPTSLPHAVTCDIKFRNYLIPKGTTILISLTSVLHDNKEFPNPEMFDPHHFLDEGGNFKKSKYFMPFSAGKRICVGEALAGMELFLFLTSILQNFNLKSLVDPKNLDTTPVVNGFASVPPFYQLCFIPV

CC(C)(CCCCOCCCCC(C)(C)C(=O)O)C(=O)O [Gemcabene, 6,6′-oxybis(2,2-dimethylhexanoic acid)]
% of patients experiencing a musculoskeletal adverse event [1, 3]: 0.0%
No = number of muscle skeletal adverse events [1, 3]: 0
% of patients experiencing a musculoskeletal adverse event [1, 4]: 0.0%
No = number of muscle skeletal adverse events [1, 4]: 0
% of patients experiencing a musculoskeletal adverse event [1, 5]: 0.0%
No = number of muscle skeletal adverse events [1, 5]: 0
pIC50 (CYP2C9): < 2.82
pIC50 (CYP2C9; human, microsomes): < 2.82
Sirius Red positive area (mean ± SD) ([2]; gemcabene 30 mg/kg PO QD 6-9 wks): 0.56 ± 0.18%
NAFLD Activity score, NAS (mean ± SD) ([2]; gemcabene 30 mg/kg PO QD 6-9 wks, n = 8): 3.4 ± 1.1
Fasting blood glucose (mean ± SD) ([2]; gemcabene 30 mg/kg PO QD): 437 ± 42 mg/dL
Plasma insulin (mean ± SD) ([2]; gemcabene 30 mg/kg PO QD): 0.13 ± 0.04 ng/mL
Liver hydroxyl-proline (mean ± SD) ([2]; gemcabene 30 mg/kg PO QD): 0.66 ± 0.12 μg/mg total protein
Liver triglyceride (mean ± SD) ([2]; gemcabene 30 mg/kg PO QD): 49.2 ± 8.6 mg/g liver
Non-fasting blood glucose (mean ± SD) ([2]; gemcabene 30 mg/kg PO QD): 607 ± 48 mg/dL
Plasma ALT (mean ± SD) ([2]; gemcabene 30 mg/kg PO QD): 41 ± 15 U/L
Plasma AST (mean ± SD) ([2]; gemcabene 30 mg/kg PO QD): 100 ± 44 U/L
Plasma ketone body (mean ± SD) ([2]; gemcabene 30 mg/kg PO QD): 9.43 ± 2.35 mM
Sirius Red positive area (mean ± SD) ([2]; gemcabene 100 mg/kg PO QD 6-9 wks): 0.53 ± 0.18%
NAFLD Activity score, NAS (mean ± SD) ([2]; gemcabene 100 mg/kg PO QD 6-9 wks, n = 8): 3.6 ± 1.4
Fasting blood glucose (mean ± SD) ([2]; gemcabene 100 mg/kg PO QD): 441 ± 46 mg/dL
Plasma insulin (mean ± SD) ([2]; gemcabene 100 mg/kg PO QD): 0.17 ± 0.06 ng/mL
Liver hydroxyl-proline (mean ± SD) ([2]; gemcabene 100 mg/kg PO QD): 0.74 ± 0.38 μg/mg total protein
Liver triglyceride (mean ± SD) ([2]; gemcabene 100 mg/kg PO QD): 58.4 ± 14.5 mg/g liver
Non-fasting blood glucose (mean ± SD) ([2]; gemcabene 100 mg/kg PO QD): 653 ± 53 mg/dL
Plasma ALT (mean ± SD) ([2]; gemcabene 100 mg/kg PO QD): 27 ± 7 U/L
Plasma AST (mean ± SD) ([2]; gemcabene 100 mg/kg PO QD): 88 ± 32 U/L
Plasma ketone body (mean ± SD) ([2]; gemcabene 100 mg/kg PO QD): 5.75 ± 3.24 mM
Sirius Red positive area (mean ± SD) ([2]; gemcabene 300 mg/kg PO QD 6-9 wks): 0.59 ± 0.16%
NAFLD Activity score, NAS (mean ± SD) ([2]; gemcabene 300 mg/kg PO QD 6-9 wks, n = 8): 2.5 ± 0.8
Fasting blood glucose (mean ± SD) ([2]; gemcabene 300 mg/kg PO QD): 407 ± 15 mg/dL
Plasma insulin (mean ± SD) ([2]; gemcabene 300 mg/kg PO QD): 0.13 ± 0.04 ng/mL
Liver hydroxyl-proline (mean ± SD) ([2]; gemcabene 300 mg/kg PO QD): 0.70 ± 0.10 μg/mg total protein
Liver triglyceride (mean ± SD) ([2]; gemcabene 300 mg/kg PO QD): 56.0 ± 13.9 mg/g liver
Non-fasting blood glucose (mean ± SD) ([2]; gemcabene 300 mg/kg PO QD): 638 ± 63 mg/dL
Plasma ALT (mean ± SD) ([2]; gemcabene 300 mg/kg PO QD): 32 ± 14 U/L
Plasma AST (mean ± SD) ([2]; gemcabene 300 mg/kg PO QD): 147 ± 122 U/L
Plasma ketone body (mean ± SD) ([2]; gemcabene 300 mg/kg PO QD): 5.68 ± 3.08 mM
number of mice with Hepatocyte ballooning score 0 (None) [2, 6]: 4
number of mice with Hepatocyte ballooning score 1 (Few balloon cells) [2, 6]: 2
number of mice with Hepatocyte ballooning score 2 (Many cells/prominent ballooning) [2, 6]: 2
number of mice with Lobular inflammation score 0 (No foci) [2, 6]: 1
number of mice with Lobular inflammation score 1 (<2 foci/200x) [2, 6]: 2
number of mice with Lobular inflammation score 2 (2-4 foci/200x) [2, 6]: 4
number of mice with Lobular inflammation score 3 (>4 foci/200x) [2, 6]: 1
number of mice with Steatosis score 1 (5-33%) [2, 6]: 8
number of mice with Hepatocyte ballooning score 0 (None) [2, 7]: 1
number of mice with Hepatocyte ballooning score 1 (Few balloon cells) [2, 7]: 4
number of mice with Hepatocyte ballooning score 2 (Many cells/prominent ballooning) [2, 7]: 3
number of mice with Lobular inflammation score 0 (No foci) [2, 7]: 2
number of mice with Lobular inflammation score 1 (<2 foci/200x) [2, 7]: 1
number of mice with Lobular inflammation score 2 (2-4 foci/200x) [2, 7]: 5
number of mice with Steatosis score 1 (5-33%) [2, 7]: 8
number of mice with Hepatocyte ballooning score 0 (None) [2, 8]: 4
number of mice with Hepatocyte ballooning score 1 (Few balloon cells) [2, 8]: 3
number of mice with Hepatocyte ballooning score 2 (Many cells/prominent ballooning) [2, 8]: 1
number of mice with Lobular inflammation score 0 (No foci) [2, 8]: 2
number of mice with Lobular inflammation score 1 (<2 foci/200x) [2, 8]: 2
number of mice with Lobular inflammation score 2 (2-4 foci/200x) [2, 8]: 4
number of mice with Steatosis score 0 (<5%) [2, 8]: 3
number of mice with Steatosis score 1 (5-33%) [2, 8]: 5
pIC50 (CYP1A2): < 2.82
pIC50 (CYP1A2; human, microsomes): < 2.82
